Assay results published in article doi:10.1101/151233v4 (biorxiv, 2018).
pEC50: −log10 of the molar value.

Biological target: T1, truncated chicken MR (GAL4-DBD-MR-LBD) (Gallus gallus, UniProt C1KB84)
T1 sequence (C1KB84 729-986): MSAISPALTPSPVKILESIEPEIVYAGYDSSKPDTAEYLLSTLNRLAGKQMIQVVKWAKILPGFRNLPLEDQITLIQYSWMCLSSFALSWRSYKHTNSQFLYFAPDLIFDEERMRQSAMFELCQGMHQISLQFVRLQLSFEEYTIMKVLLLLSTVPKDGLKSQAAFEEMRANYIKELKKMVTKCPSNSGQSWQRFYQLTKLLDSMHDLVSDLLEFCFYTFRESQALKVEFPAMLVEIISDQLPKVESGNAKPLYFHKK
Experiment: luciferase reporter transactivation in HEK293, GAL4-DBD fusion
Format: cell-based

Row | pEC50 | Structure (SMILES)
1 | 9.89 | C[C@]12CCC(=O)C=C1CC[C@@H]1[C@@H]2[C@@H](O)C[C@]2(C=O)[C@@H](C(=O)CO)CC[C@@H]12 [aldosterone]
2 | 9.16 | C[C@]12CCC(=O)C=C1CC[C@@H]1[C@@H]2[C@@H](O)C[C@@]2(C)[C@H]1CC[C@]2(O)C(=O)CO [cortisol]
